IC50 data for seven molecules are collected here from BindingDB's records for doi:10.1021/acs.jmedchem.9b01169 (Boehringer Ingelheim Rcv, 2019).

A value given as a limit tells only on which side of the number the result lay.

The assay is described as follows: Inhibition of wild type EGFR in mouse BAF3 cells assessed as reduction in cell proliferation incubated for 72 hrs by Celltiter-Glo luminescent cell viability assay. Background: Cellular ATP, detected with luciferase, serves as a proxy for viable cell number.
Regarding `Cc1cc2cc(n1)-c1cnn(C)c1OCCC[C@@H](C)CN1/C(=N/C2=O)Nc2ccccc21`, the IC50 (commonly the midpoint of a concentration-inhibition curve) was 1.1 µM. The figure for `O=C1/N=C2\Nc3ccccc3N2CCCCCOc2ccccc2-c2cc1ccn2` is 1.3 µM; for `Cn1ncc2c1OCCCCCN1/C(=N/C(=O)c3cc(F)nc-2c3)Nc2ccccc21` it is 0.27 µM. `Cn1cc(-c2cc(C(=O)/N=c3\[nH]c4ccccc4n3CC(C)(C)O)ccn2)cn1`: the IC50 was 5.1 µM. The figure for `COc1ccncc1-c1cc(C(=O)/N=c2\[nH]c3ccccc3n2CC(C)(C)O)ccn1` is 0.7 µM. The figure for `CC(C)(O)Cn1/c(=N/C(=O)c2ccnc(-c3ccccc3)c2)[nH]c2ccccc21` is over 10 µM; for `Cc1cc2cc(n1)-c1cnn(C)c1OCCCCCN1/C(=N/C2=O)Nc2ccccc21` it is 2.3 µM.
